Test results taken from PubChem BioAssay (NCI).
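At the GI50, growth is halved. Definition used: TGI = concentration required for complete inhibition of growth.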

Tests used:
Assay in all cases: DTP human tumour cell line panel, 384-well format
SF-539 CNS = tested on: SF-539 CNS
NCI-H23 lung = tested on: NCI-H23 lung
M14 melanoma = tested on: M14 melanoma
HOP-92 NSCLC = tested on: HOP-92 NSCLC
K-562 leukemia = tested on: K-562 leukemia
SN12C renal = tested on: SN12C renal
MDA-MB-231 breast = tested on: MDA-MB-231 breast
MALME-3M melanoma = tested on: MALME-3M melanoma
NCI/ADR-RES ovarian = tested on: NCI/ADR-RES ovarian
SK-OV-3 ovarian = tested on: SK-OV-3 ovarian
BT-549 breast = tested on: BT-549 breast
HS 578T breast = tested on: HS 578T breast
MDA-MB-468 breast = tested on: MDA-MB-468 breast
RPMI-8226 leukemia = tested on: RPMI-8226 leukemia
HOP-62 NSCLC = tested on: HOP-62 NSCLC
PC-3 prostate = tested on: PC-3 prostate
CAKI-1 renal = tested on: CAKI-1 renal
SNB-19 CNS = tested on: SNB-19 CNS
NCI-H226 lung = tested on: NCI-H226 lung
COLO 205 colon = tested on: COLO 205 colon
OVCAR-5 ovarian = tested on: OVCAR-5 ovarian
HT29 colon = tested on: HT29 colon
NCI-H460 NSCLC = tested on: NCI-H460 NSCLC
HCT-15 colon = tested on: HCT-15 colon
SNB-75 CNS = tested on: SNB-75 CNS
NCI-H522 lung = tested on: NCI-H522 lung
MDA-MB-435 melanoma = tested on: MDA-MB-435 melanoma
SW-620 colon = tested on: SW-620 colon
TK-10 renal = tested on: TK-10 renal
OVCAR-8 ovarian = tested on: OVCAR-8 ovarian
KM12 colon = tested on: KM12 colon
RXF 393 renal = tested on: RXF 393 renal
HCT-116 colon = tested on: HCT-116 colon
OVCAR-3 ovarian = tested on: OVCAR-3 ovarian
NCI-H322M lung = tested on: NCI-H322M lung
LOX IMVI melanoma = tested on: LOX IMVI melanoma
HCC-2998 colon = tested on: HCC-2998 colon
U251 glioblastoma = tested on: U251 glioblastoma
SK-MEL-2 melanoma = tested on: SK-MEL-2 melanoma
T-47D breast = tested on: T-47D breast
UACC-62 melanoma = tested on: UACC-62 melanoma
786-0 renal = tested on: 786-0 renal
IGROV1 ovarian = tested on: IGROV1 ovarian
EKVX NSCLC = tested on: EKVX NSCLC
SF-295 CNS = tested on: SF-295 CNS
SR leukemia = tested on: SR leukemia
A498 renal = tested on: A498 renal

With `CC#CC(=O)N1CC[C@@H](n2c(=O)n(-c3ccc(Oc4ccccc4)cc3)c3c(N)ncnc32)C1` the GI50 (SF-539 CNS) was 21.6 µM, the TGI (SF-539 CNS) was 53.6 µM and the GI50 (NCI-H23 lung) was 30.9 µM. For the same molecule, the TGI (NCI-H23 lung) was 99.6 µM, the GI50 (M14 melanoma) was 22.7 µM and the TGI (M14 melanoma) was 50.1 µM. For the same molecule, the GI50 (HOP-92 NSCLC) was 13.4 µM, the TGI (HOP-92 NSCLC) was greater than 59.6 µM and the GI50 (K-562 leukemia) was 12.5 µM. The TGI (K-562 leukemia) was 38.4 µM, the GI50 (SN12C renal) was 20.2 µM and the TGI (SN12C renal) was greater than 90.9 µM. It also gave a GI50 (MDA-MB-231 breast) of 22 µM, a TGI (MDA-MB-231 breast) greater than 67.8 µM and a GI50 (MALME-3M melanoma) of 37.2 µM. For the same molecule, the TGI (MALME-3M melanoma) was greater than 100 µM, the GI50 (NCI/ADR-RES ovarian) was 15.7 µM and the TGI (NCI/ADR-RES ovarian) was 41.3 µM. For the same molecule, the GI50 (SK-OV-3 ovarian) was 33.5 µM, the TGI (SK-OV-3 ovarian) was greater than 87.1 µM and the GI50 (BT-549 breast) was 16.6 µM. The TGI (BT-549 breast) was 33.9 µM, the GI50 (HS 578T breast) was 22.1 µM and the TGI (HS 578T breast) was 55.9 µM. For the same molecule, the GI50 (MDA-MB-468 breast) was 10.1 µM, the TGI (MDA-MB-468 breast) was 24.5 µM and the GI50 (RPMI-8226 leukemia) was 7.89 µM. The TGI (RPMI-8226 leukemia) was 23 µM, the GI50 (HOP-62 NSCLC) was 21.3 µM and the TGI (HOP-62 NSCLC) was 61.8 µM. For the same molecule, the GI50 (PC-3 prostate) was 35.1 µM, the TGI (PC-3 prostate) was greater than 100 µM and the GI50 (CAKI-1 renal) was 23.5 µM. The TGI (CAKI-1 renal) was greater than 100 µM, the GI50 (SNB-19 CNS) was 23.3 µM and the TGI (SNB-19 CNS) was greater than 64.3 µM. It also gave a GI50 (NCI-H226 lung) of 21.8 µM, a TGI (NCI-H226 lung) greater than 74.4 µM and a GI50 (COLO 205 colon) of 37.1 µM. It also gave a TGI (COLO 205 colon) greater than 100 µM, a GI50 (OVCAR-5 ovarian) greater than 64.3 µM and a TGI (OVCAR-5 ovarian) greater than 100 µM. For the same molecule, the GI50 (HT29 colon) was 32.2 µM, the TGI (HT29 colon) was greater than 100 µM and the GI50 (NCI-H460 NSCLC) was 17.1 µM. It also gave a TGI (NCI-H460 NSCLC) of 33.4 µM, a GI50 (HCT-15 colon) of 28.6 µM and a TGI (HCT-15 colon) greater than 89.5 µM. For the same molecule, the GI50 (SNB-75 CNS) was 28.6 µM, the TGI (SNB-75 CNS) was 77.2 µM and the GI50 (NCI-H522 lung) was 5.88 µM. The TGI (NCI-H522 lung) was 27.9 µM, the GI50 (MDA-MB-435 melanoma) was 30 µM and the TGI (MDA-MB-435 melanoma) was greater than 80.4 µM. For the same molecule, the GI50 (SW-620 colon) was 25.6 µM, the TGI (SW-620 colon) was 55.9 µM and the GI50 (TK-10 renal) was 36.5 µM. For the same molecule, the TGI (TK-10 renal) was greater than 100 µM, the GI50 (OVCAR-8 ovarian) was 27.6 µM and the TGI (OVCAR-8 ovarian) was greater than 100 µM. The GI50 (KM12 colon) was 27.4 µM, the TGI (KM12 colon) was greater than 76.8 µM and the GI50 (RXF 393 renal) was 13.4 µM. For the same molecule, the TGI (RXF 393 renal) was 32.2 µM, the GI50 (HCT-116 colon) was 22.1 µM and the TGI (HCT-116 colon) was 54.8 µM. The GI50 (OVCAR-3 ovarian) was 14.3 µM, the TGI (OVCAR-3 ovarian) was 31.3 µM and the GI50 (NCI-H322M lung) was 27.5 µM. The TGI (NCI-H322M lung) was greater than 100 µM, the GI50 (LOX IMVI melanoma) was 18.8 µM and the TGI (LOX IMVI melanoma) was 36.2 µM. It also gave a GI50 (HCC-2998 colon) of 24.5 µM, a TGI (HCC-2998 colon) of 49.4 µM and a GI50 (U251 glioblastoma) of 18.1 µM. It also gave a TGI (U251 glioblastoma) of 40.3 µM, a GI50 (SK-MEL-2 melanoma) of 18.1 µM and a TGI (SK-MEL-2 melanoma) of 34.7 µM. For the same molecule, the GI50 (T-47D breast) was 11.9 µM, the TGI (T-47D breast) was 33.1 µM and the GI50 (UACC-62 melanoma) was 22.8 µM. For the same molecule, the TGI (UACC-62 melanoma) was greater than 100 µM, the GI50 ([…]-0 renal) was 23 µM and the TGI (786-0 renal) was 66.1 µM. For the same molecule, the GI50 (IGROV1 ovarian) was 16.8 µM, the TGI (IGROV1 ovarian) was 37.4 µM and the GI50 (EKVX NSCLC) was 20.7 µM. The TGI (EKVX NSCLC) was greater than 77.2 µM, the GI50 (SF-295 CNS) was 40.5 µM and the TGI (SF-295 CNS) was greater than 100 µM. The GI50 (SR leukemia) was 5.69 µM, the TGI (SR leukemia) was 18.6 µM and the GI50 (A498 renal) was 21.7 µM. The TGI (A498 renal) was greater than 74.2 µM.
